Reference: US11859242B2, “Template-directed nucleic acid targeting compounds” (Carnegie Mellon University, priority 2017, dated 2024)
“Also recorded” adds a separate entry of the source.

Key:
[1] = test system: RNA targets containing hexameric r(CUGCUG)-repeats (T1-T8); assay: UV melting experiments of MPγPNA probes with RNA targets; assay type: binding; settings: for trend of Tms with number of binding-sites in the targets: 10 mM NaPi, 150 mM KCl, 2 mM MgCl2, pH 7.4, 8 μM strand concentration; for differences in the Tms of RNAs with mismatched probes: single (P5) and double (P6) base mismatch probes
Description: FIG. 7. UV-melting profiles of PI through P4 with T6. The concentration of T6 was 1 μM and that of each probe was 6 μM, prepared in a physiologically relevant buffer.
FIG. 8. UV-melting profiles of P4-RNA heteroduplexes in a physiologically relevant buffer at 8 μM strand concentration. The samples were prepared by mixing 8 μM of P4 with the respective RNA targets at the following concentrations: T1=8.0 μM, T2=4.0 μM, T4=2.0 μM, T6=1.3 μM, T8=1.0 μM in a physiological buffer and annealed at 90° C. for 5 min, followed by a gradual cooling to room temperature.
FIG. 9. UV-melting transitions of RNAs and the corresponding probe-RNA heteroduplexes containing the perfectly-matched and mismatched sequences as a function of the number of r(CUGCUG)n-binding-sites in the targets. Inset: UV-melting profiles Of RNA with P5 and P6 containing single and double base-mismatches, respectively.
UV Melting Experiments: All UV-melting samples were prepared by mixing MPγPNA with RNA targets at the indicated concentrations in a physiologically simulated buffer (10 mM NaPi (sodium phosphate buffer), 150 mM KCl, 2 mM MgCl2; pH 7-4), and annealed by incubation at 90° C. for 5 min followed by a gradual cooling to room temperature. UV melting curves were collected using Agilent Cary UV-Vis 300 spectrometer equipped with a thermoelectrically controlled multi-cell holder. UV-melting spectra were collected by monitoring UV-absorption at 260 nm from 25° C. to 95° C. in the heating runs, and from 95° C. to 25° C. in the cooling runs, both at the rate of 0.2° C. per min. […] The recorded spectra were smoothed using a 20-point adjacent averaging algorithm. The first derivatives of the melting curves were taken to determine the melting temperatures of the duplex.
All the experiments were conducted at a physiologically relevant ionic strength (10 mM NaPi, 150 mM KCl, and 2 mM MgCl2 at pH 7.4). RNA concentrations were prepared such that the number of r(CUGCUG)-repeats in each sample was the same. […] Based on this finding, we selected P4 and carried out UV-melting study with the various RNA targets. […] Pyrene-pyrene interaction is evident from the inverse absorption profiles of P4-T6 and P4-T8 in the 40-70° C. temperature range. Upon heating, the solvophobic effect becomes more pronounced due to the inverse intensity distribution of vibronic transition of pyrene excimer relative to monomer, Ae^o→o/Am^o→o˜0.6, prior to their dissociation upon further heating. […] The Tms of the P4-RNA series follow a positive linear correlation, Y=66+2X, with X being the number of binding-sites in the targets (FIG. 9). […] Such a phenomenon was also observed with PNA-ligand conjugates.

[2] = test system: normal-length T6 and pathogenic T48 [r(CUG)96] RNA; assay: Competitive binding assay (agarose gel, SYBR-Gold); settings: equimolar binding-sites of T6 and T48, 37° C. for 16 hrs
Description: FIG. 12. Selective binding of r(CUGCUG)n-RNA transcripts by P4. The samples were prepared by mixing pre-annealed RNAs with probes at 37° C. for 4 hrs. The ratios of P4 to the total RNA binding-sites were 0 (lane 3), ¼ (lane 4), ½ (lane 5), 1/1 (lane 6); and for the mismatched P5 at 1/1 (lane 7). Competitive Binding Assay: T6 was purchased from IDT. T48, the same as r(CUG)96, was prepared as previous described, except that the DNA template was (CTG)96. T6 and T48 were separately annealed by heating up to 90° C. for 5 min and gradually cooled to room temperature. Probes and RNA targets were mixed at the indicated concentrations and incubated in a physiologically simulated buffer at 37° C. for 4 hr in silicon-coated Eppendorf tubes. The samples were then loaded onto 2% agarose-gel containing IX SYBR-Gold with Tris-borate buffer and electrophoretically separated at 100 V for 15 min. The bands were visualized by UV-Transilluminator. To assess the recognition selectivity of P4 probe, we carried out a competitive binding assay. Equimolar binding-sites of the normal-length T6 and the pathogenic T48 [r(CUG)96, prepared according to our published protocol, were incubated with different concentrations of P4 at 37° C. for 16 hrs. The resulting mixtures were analyzed by agarose-gel and stained with SYBR-Gold for visualization.

[3] = test system: RNA targets containing r(CUGCUG)-repeats (T1-T8); assay: Steady-state fluorescent measurements of P4-RNA duplexes (pyrene excimer emission); settings: P4 1 μM, equimolar binding sites T1-T8; 37° C., 1 hr
Description: (§1) FIG. 10. Fluorescent spectra of P4-RNA duplexes at equimolar concentrations (P4=1 μM; T1=1 μM, T2=½, T4 ¼, T6=⅙, T8 ⅛) following the incubation at 37° C. for 1 hr and excitation at 345 nm. Inset: Fluorescent signals at 480 nm as a function of time following the addition of P4 (1 μM) to T8 (⅛ μM), and P4 (1 μM) to [T1 (1 μM)+T8 (⅛ μM)] at 37° C.
Steady-State Fluorescent Measurements: All steady-state fluorescence samples were prepared by mixing P4-RNA duplexes at the indicated concentrations in a simulated physiological buffer and annealed by incubation at 90° C. for 5 min, followed by a gradual cooling to 37° C. The samples were incubated at 37° C. for 1 hr before the measurements. Steady-state fluorescence data were collected at 37° C. by Cary Eclipse Fluorescence Spectrometer. (εex=350 nm and εem=480 nm) with slit size.
(§2) To further corroborate these findings, we carried out fluorescent measurements under identical conditions. The samples were excited at 340 nm, and the fluorescent signals were recorded from 345 to 650 nm. Characteristic of the pyrene-pyrene excimer formation is the emission at 480 nm (FIG. 10). […] The samples were markedly different under UV-illumination, such that they could be distinguished with the naked eyes (FIG. 11).

[4] = test system: T8 RNA (r(CUGCUG)-repeats), with or without competing T1; assay: Real-time fluorescent binding kinetics
Description: as §1
Real-Time Fluorescent Binding Kinetics: For real-time fluorescent kinetic experiment the samples were prepared as followed: (1) P4 alone, (2) P4, T1 and T8 annealed prior to the measurement, (3) addition of P4 to T8 at 37° C., and (4) addition of P4 to T8 in the presence of T1 at equimolar binding sites. Realtime fluorescence data were collected at 37° C. by Cary Eclipse Fluorescence Spectrometer. (εex=350 nm and εem=480 nm) with slit size.
as §2

[5] = test system: rCUG^exp-MBNL1 complex (T48 with GST-MBNL1-F1); assay: Analysis of T48-MBNL1 disruption by probe (gel-shift assay); assay type: biochemical; settings: T48 25 nM, GST-MBNL1-F1 400 nM; increasing probe concentrations
Description: FIG. 13. Displacement of MBNL1 from T48 by P4. P-T48 was allowed to form complexes with GST-MBNL1-FI prior to the addition of P4. The samples were prepared in a physiologically relevant buffer at the final T48 and GST-MBNL1-FI concentration of 25 nM and 400 nM, respectively.
Analysis of T48-MBNL1 Disruption by Probe: T48 and GST-MBNL1-F1 were prepared as previously described. Radioisotopically labeled T48 was incubated with GST-MBNL1-F1 in buffer containing 50 mM Tris, 50 mM NaCl, 50 mM KCl and 1 mM MgCl2 (pH 8.0) at the indicated concentrations at 25° C. for 30 minutes. The indicated concentration of P4 was added to T48-MBNL1 complex. The samples were immediately loaded to 1.5% agarose gels with 1× Tris-borate buffer and electrophoretically separated at 100 V for 2 hrs. The bands were visualized by phosphorimaging and quantified with ImageQuant (Molecular Dynamics).
Next, we determined whether P4 can disrupt the rCUG^exp-MBNL1 complex by performing a gel-shift assay. The RNA-protein complex was prepared by incubating 5′-^32P-labelled T48 with MBNL1 at a physiologically relevant condition. Upon confirmation of their binding, P4 was added and the resulting mixtures were incubated at 37° C. for 4 hrs prior to their analysis by nondenaturing PAGE and autoradiography. Formation of the T48-MBNL1 complexes is evident by the smeared patterns observed in lanes 2 through 4 of FIG. 13. […]

Row | Substance | trend of Tms with number of binding-sites in the targets [1] | recognition selectivity / binding to T48 versus T6 [2] | differences in the Tms of RNAs with mismatched probes [1] | further results
1 | H-^L-Arg-CAGCAG-^LArg-NH2 [P1] | plateaued at X˜3 |  |  | 
2 | H-^LArg-^LLys(Pyr)-CAGCAG-^LLys(Pyr)-^LArg-NH2 [P4] | monotonically increased with the number of binding-sites | able to discriminate the pathogenic T48 from the wt-T12 |  | fluorescent intensities at 480 nm (pyrene-pyrene excimer) with number of binding-sites in RNAs [3]: gradual increase in the fluorescent intensities at 480 nm; hybridization lag-time with competing T1 strand ([4]; P4 1 μM added to T1 1 μM + T8 ⅛ μM (equimolar binding-sites) at 37° C.): 2 min; time to nearly complete hybridization to T8 ([4]; P4 1 μM added to T8 ⅛ μM at 37° C., fluorescence at 480 nm): ≤ 10 min; interaction with single-binding-site RNA ([4]; physiologically simulated condition, T1 competitor): weak and transient; disruption of rCUG^exp-MBNL1 complex / displacement of MBNL1 from T48 [5]: able to disrupt the rCUG^exp-MBNL1 complex; binding cooperativity (UV-melting profiles) ([1]; with T6, T6 1 μM, probe 6 μM, physiologically relevant buffer, comparison of linker lengths P2 through P4): highest degree of binding cooperativity; also recorded: cooperative binding was clearly observed
3 | H-^LArg-^LLys(Pyr)-CATCAG-^LLys(Pyr)-^LArg-NH2 [P5] |  | No evidence of binding | no discernible differences | 
4 | H-^LArg-^LLys(Pyr)-CTGCTG-^LLys(Pyr)-^LArg-NH2 [P6] |  |  | no discernible differences | 
